Experimental data published in patent US8927538B2, “Carbazole linked pyrrolo[2,1-c][1,4]benzodiazefine hybrids as potential anticancer agents and process for the preparation thereof” (Council of Scientific & Industrial Research, priority 2010, dated 2015).

Tests used:
PC-3 = assay: NCI SRB cytotoxicity, PC-3; type: cell-based, human; settings: Prostate PC-3, 48 hrs exposure
Source text: (§1) The C8-linked carbazole-PBD hybrids have been tested against sixty human tumour cell lines derived from nine cancer types (leukemia, non-small cell lung cancer, colon cancer, CNS cancer, melanoma, ovarian cancer, renal cancer, prostate cancer and breast cancer) as per NCI protocol, For each compound, dose response curves for individual cell lines have been measured at a minimum of five concentrations at 10 fold dilutions. A protocol of 48 hrs continuous drug exposure has been used, and a sulforhodamine B (SRB) protein assay was used to estimate cell viability or growth. The concentration for 50% cell growth inhibition (GI50), total cell growth inhibition (TGI, 0% growth) and 50% cell death (LC50, […]) compared with the control has been calculated (Table-3).
(§2) Compounds 6c and 14a have been evaluated for in vitro cytotoxicity in sixty cell lines from nine human cancer types of lung (Hop-62, NCI-H226, NCI-H522), leukemia (K-562, SR), colon (HCT-116, HCT-15, HCC-2998), CNS(SF-539), melanoma (SK-MEL-5, UACC-62, M14), ovarian (IGROV1), renal (A498), prostate (PC3) breast (BT-549, MDA-MB-435, HS578T) origin. The results are expressed as percent of cell growth determined relative to that of untreated control cells (Table 1).

[1] = test system: Non small cell lung cancer cell lines; assay: NCI SRB cytotoxicity, non-small cell lung panel; type: cell-based, human; settings: average of six to eight cell lines
Source text: as §1, §2

[2] = test system: prostate cancer cell lines; assay: NCI SRB cytotoxicity, prostate panel; type: cell-based, human; settings: average of cell lines
Source text: as §1, §2

A549/ATCC = assay: NCI SRB cytotoxicity, A549/ATCC; type: cell-based, human; settings: Non-small cell lung A549/ATCC, 48 hrs exposure
Source text: as §1, §2

HS 578T = assay: NCI SRB cytotoxicity, HS 578T; type: cell-based, human; settings: Breast HS 578T, 48 hrs exposure
Source text: as §1, §2

[3] = test system: sixty human tumour cell lines derived from nine cancer types; assay: NCI in vitro cytotoxicity screen (SRB), sixty cell lines; type: cell-based; settings: for GI50: 48 hrs continuous drug exposure, SRB, read-out: GI50 against sixty cell lines in nine cancer cell panels; for in vitro cytotoxicity: sixty cell lines from nine human cancer types
Source text: as §1, §2

RXF 393 = assay: NCI SRB cytotoxicity, RXF 393; type: cell-based, human; settings: Renal RXF 393, 48 hrs exposure
Source text: as §1, §2

NCI-H226 = assay: NCI SRB cytotoxicity, NCI-H226; type: cell-based, human; settings: Non-small cell lung NCI-H226, 48 hrs exposure
Source text: as §1, §2

U251 = assay: NCI SRB cytotoxicity, U251; type: cell-based, human; settings: CNS U251, 48 hrs exposure
Source text: as §1, §2

MCF7 = assay: NCI SRB cytotoxicity, MCF7; type: cell-based, human; settings: Breast MCF7, 48 hrs exposure
Source text: as §1, §2

DU-145 = assay: NCI SRB cytotoxicity, DU-145; type: cell-based, human; settings: Prostate DU-145, 48 hrs exposure
Source text: as §1, §2

LOX IMVI = assay: NCI SRB cytotoxicity, LOX IMVI; type: cell-based, human; settings: Melanoma LOX IMVI, 48 hrs exposure
Source text: as §1, §2

OVCAR-5 = assay: NCI SRB cytotoxicity, OVCAR-5; type: cell-based, human; settings: Ovarian OVCAR-5, 48 hrs exposure
Source text: as §1, §2

SK-MEL-28 = assay: NCI SRB cytotoxicity, SK-MEL-28; type: cell-based, human; settings: Melanoma SK-MEL-28, 48 hrs exposure
Source text: as §1, §2

786-0 = assay: NCI SRB cytotoxicity, 786-0; type: cell-based, human; settings: Renal 786-0, 48 hrs exposure
Source text: as §1, §2

CAKI-1 = assay: NCI SRB cytotoxicity, CAKI-1; type: cell-based, human; settings: Renal CAKI-1, 48 hrs exposure
Source text: as §1, §2

K-562 = assay: NCI SRB cytotoxicity, K-562; type: cell-based, human; settings: Leukemia K-562, 48 hrs exposure
Source text: as §1, §2

EKVX = assay: NCI SRB cytotoxicity, EKVX; type: cell-based, human; settings: Non-small cell lung EKVX, 48 hrs exposure
Source text: as §1, §2

M14 = assay: NCI SRB cytotoxicity, M14; type: cell-based, human; settings: Melanoma M14, 48 hrs exposure
Source text: as §1, §2

MOLT-4 = assay: NCI SRB cytotoxicity, MOLT-4; type: cell-based, human; settings: Leukemia MOLT-4, 48 hrs exposure
Source text: as §1, §2

SF-268 = assay: NCI SRB cytotoxicity, SF-268; type: cell-based, human; settings: CNS SF-268, 48 hrs exposure
Source text: as §1, §2

HCT-15 = assay: NCI SRB cytotoxicity, HCT-15; type: cell-based, human; settings: Colon HCT-15, 48 hrs exposure
Source text: as §1, §2

CCRF-CEM = assay: NCI SRB cytotoxicity, CCRF-CEM; type: cell-based, human; settings: Leukemia CCRF-CEM, 48 hrs exposure
Source text: as §1, §2

SF-539 = assay: NCI SRB cytotoxicity, SF-539; type: cell-based, human; settings: CNS SF-539, 48 hrs exposure
Source text: as §1, §2

NCI-H522 = assay: NCI SRB cytotoxicity, NCI-H522; type: cell-based, human; settings: Non-small cell lung NCI-H522, 48 hrs exposure
Source text: as §1, §2

SW-620 = assay: NCI SRB cytotoxicity, SW-620; type: cell-based, human; settings: Colon SW-620, 48 hrs exposure
Source text: as §1, §2

HT 29 = assay: NCI SRB cytotoxicity, HT 29; type: cell-based, human; settings: Colon HT 29, 48 hrs exposure
Source text: as §1, §2

SR = assay: NCI SRB cytotoxicity, SR; type: cell-based, human; settings: Leukemia SR, 48 hrs exposure
Source text: as §1, §2

[4] = against nine human tumor cell lines

COc1cc2c(cc1OCCCCCn1c3ccccc3c3ccccc31)N=C[C@@H]1CCCN1C2=O [Compound 6c, 7-Methoxy-8-[5-(9H-9-carbazoly)pentyloxy]-(11aS)-1,2,3,11a-tetrahydro-5H-Pyrrolo[2,1-c][1,4]benzodiazepin-5-one]
GI50 (PC-3): 2360 nM
Log10 GI50 [1]: −5.64 mol/L
Log10 LC50 (concentration causing 50% lethality) [1]: −4.78 mol/L
Log10 GI50 [2]: −5.64 mol/L
Log10 LC50 (concentration causing 50% lethality) [2]: −4.50 mol/L
GI50 (A549/ATCC): 1570 nM
GI50 (HS 578T): 1970 nM
GI50 [3]: 1030 nM
log10 GI50 mean graph midpoint value [3, 4]: −5.67 mol/lit
log10 LC50 mean graph midpoint value [3, 4]: −4.67 mol/lit
log10 TGI mean graph midpoint value [3, 4]: −5.29 mol/lit
Log10 GI50 mean graph midpoint (MG_MID) ([3]; human tumour cell lines): −5.67
Log10 LC50 mean graph midpoint (MG_MID) ([3]; human tumour cell lines): −4.67
Log10 TGI mean graph midpoint (MG_MID) ([3]; human tumour cell lines): −5.29
in vitro cytotoxicity [3]: significant cytotoxicity against some cancer cell lines
GI50 (RXF 393): 4340 nM
GI50 (NCI-H226): 2490 nM
GI50 (U251): 1590 nM
GI50 (MCF7): 2330 nM
GI50 (DU-145): 2230 nM
GI50 (LOX IMVI): 2080 nM
GI50 (OVCAR-5): 2420 nM
GI50 (SK-MEL-28): 1800 nM
GI50 (786-0): 1730 nM
GI50 (CAKI-1): 1930 nM
GI50 (K-562): 2600 nM
GI50 (EKVX): 5270 nM
GI50 (M14): 2100 nM
GI50 (MOLT-4): 2150 nM
GI50 (SF-268): 1910 nM
GI50 (HCT-15): 1670 nM
GI50 (CCRF-CEM): 1970 nM
GI50 (SF-539): 1850 nM

COc1cc2c(cc1OCCCN1CCN(CCCn3c4ccccc4c4ccccc43)CC1)N=C[C@@H]1CCCN1C2=O [Compound 14a]
Log10 GI50 [1]: −6.96 mol/L
Log10 LC50 (concentration causing 50% lethality) [1]: −5.62 mol/L
Log10 GI50 [2]: −7.42 mol/L
Log10 LC50 (concentration causing 50% lethality) [2]: −5.59 mol/L
GI50 (NCI-H522): < 10 nM
GI50 (HS 578T): 160 nM
GI50 [3]: < 10 nM
activity of 14a compared with 6c ([3]; GI50 comparison): ten folds higher activity than 6c
Log10 TGI mean graph midpoint (MG_MID) ([3]; human tumour cell lines): −6.24
in vitro cytotoxicity [3]: significant cytotoxicity against some cancer cell lines
GI50 (RXF 393): 220 nM
GI50 (SW-620): 40 nM
GI50 (HT 29): 50 nM
GI50 (SK-MEL-28): 60 nM
GI50 (786-0): 190 nM
GI50 (CAKI-1): 120 nM
GI50 (EKVX): 140 nM
GI50 (HCT-15): 280 nM
GI50 (CCRF-CEM): 20 nM
GI50 (SR): 30 nM
GI50 (SF-539): 120 nM
